Source: PubChem BioAssay AID248 (DTP/NCI, 2004)
Several values for one entry are separate records, joined by “and”; a condition that tells them apart may be missing. Equal entries are not always repeated. Inconclusive results and toxic doses are left out. Rule as the data show it: active = T/C of 150% or more; inactive = T/C below 125%.

Test system: L1210 leukemia ip in BDF1 mice, survival T/C
Assay: NCI In Vivo Anticancer Drug Screen. Data for tumor model L1210 Leukemia (intraperitoneal) in B6D2F1 (BDF1) mice
Conditions: endpoint: mean survival time, higher = longer survival
How it was run: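 Read-out is survival time, reported as the treated-group measurement over the vehicle-control measurement.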

[1] = dose: 25.0 mg/kg/injection, schedule: Q04DX003 (ip), vehicle: saline
[2] = dose: 50.0 mg/kg/injection, schedule: Q04DX003 (ip), vehicle: saline
[3] = dose: 100.0 mg/kg/injection, schedule: Q01DX001 (ip), vehicle: saline
[4] = dose: 50.0 mg/kg/injection, schedule: Q01DX009 (ip), vehicle: Klucel (hydroxypropylcellulose) (HPC)
[5] = dose: 100.0 mg/kg/injection, schedule: Q01DX009 (ip), vehicle: Klucel (hydroxypropylcellulose) (HPC)
[6] = dose: 200.0 mg/kg/injection, schedule: Q01DX009 (ip), vehicle: Klucel (hydroxypropylcellulose) (HPC)
[7] = dose: 100.0 mg/kg/injection, schedule: Q04DX003 (ip), vehicle: Klucel (hydroxypropylcellulose) (HPC)
[8] = dose: 200.0 mg/kg/injection, schedule: Q04DX003 (ip), vehicle: Klucel (hydroxypropylcellulose) (HPC)
[9] = dose: 400.0 mg/kg/injection, schedule: Q01DX009 (ip), vehicle: Klucel (hydroxypropylcellulose) (HPC)
[10] = dose: 400.0 mg/kg/injection, schedule: Q04DX003 (ip), vehicle: Klucel (hydroxypropylcellulose) (HPC)

Measured: T/C

CN(C)CC/C=C1\c2ccccc2C(C)(C)c2ccc(Cl)cc21
inactive: dose: 2.0 mg/kg/injection, schedule: Q01DX015 (ip), vehicle: carboxymethylcellulose (CMC) 97 % of control | dose: 4.0 mg/kg/injection, schedule: Q01DX015 (ip), vehicle: carboxymethylcellulose (CMC) 96 % of control | dose: 8.0 mg/kg/injection, schedule: Q01DX015 (ip), vehicle: carboxymethylcellulose (CMC) 92 % of control | dose: 12.5 mg/kg/injection, schedule: Q01DX009 (ip), vehicle: acetone 86 % of control | dose: 16.0 mg/kg/injection, schedule: Q01DX015 (ip), vehicle: carboxymethylcellulose (CMC) 102 % of control and 91 % of control | dose: 25.0 mg/kg/injection, schedule: Q01DX009 (ip), vehicle: acetone 94 % of control | [1] 96 % of control | dose: 32.0 mg/kg/injection, schedule: Q01DX015 (ip), vehicle: carboxymethylcellulose (CMC) 98 % of control | [2] 91 % of control | [3] 87 % of control

CCOC(=O)C1C(=O)C(C(C(=O)OC2CC(C)CCC2C(C)C)N(CCCl)CCCl)C(=O)C(C(=O)OCC)C1c1ccc(O)cc1 (stereo not given)
inactive: [4] 104 % of control | [5] 104 % of control | [6] 101 % of control

O=C(O)C1CC(c2ccccc2)=C(c2ccccc2)CC1C(=O)O (stereo not given)
inactive: dose: 50.0 mg/kg/injection, schedule: Q04DX002 (ip), vehicle: Klucel (hydroxypropylcellulose) (HPC) 105 % of control | dose: 100.0 mg/kg/injection, schedule: Q04DX002 (ip), vehicle: Klucel (hydroxypropylcellulose) (HPC) 102 % of control and 114 % of control and 100 % of control | dose: 200.0 mg/kg/injection, schedule: Q04DX002 (ip), vehicle: Klucel (hydroxypropylcellulose) (HPC) 102 % of control and 100 % of control

CN(C)CCC(=O)c1ccccc1
inactive: dose: 12.5 mg/kg/injection, schedule: Q01DX009 (ip), vehicle: saline 101 % of control | dose: 25.0 mg/kg/injection, schedule: Q01DX009 (ip), vehicle: saline 101 % of control | [1] 105 % of control | dose: 50.0 mg/kg/injection, schedule: Q01DX001 (ip), vehicle: saline 103 % of control | dose: 50.0 mg/kg/injection, schedule: Q01DX009 (ip), vehicle: saline 98 % of control | [2] 101 % of control | [3] 103 % of control | dose: 100.0 mg/kg/injection, schedule: Q04DX003 (ip), vehicle: saline 100 % of control

O=C(Cl)C1CC2c3ccccc3C1([N+](=O)[O-])c1ccccc12 (stereo not given)
inactive: [4] 109 % of control | [5] 102 % of control | [7] 104 % of control | [6] 112 % of control and 91 % of control | [8] 104 % of control | [9] 101 % of control | [10] 98 % of control

O=C(NC/C(Br)=C/Br)c1ccccc1
inactive: [7] 96 % of control | [8] 100 % of control | [10] 96 % of control

O=C1CCCCCCCCCOC(=O)CCCCCCCCCO1
inactive: dose: 100.0 mg/kg/injection, schedule: Q01DX001 (ip), vehicle: Klucel (hydroxypropylcellulose) (HPC) 94 % of control | dose: 200.0 mg/kg/injection, schedule: Q01DX001 (ip), vehicle: Klucel (hydroxypropylcellulose) (HPC) 94 % of control | dose: 400.0 mg/kg/injection, schedule: Q01DX001 (ip), vehicle: Klucel (hydroxypropylcellulose) (HPC) 91 % of control

O=C(O)c1cccc(OCCCOc2ccccc2)c1
inactive: [5] 92 % of control | [6] 90 % of control | [9] 95 % of control
